Reference: patent publication US9434743B2, “Indazole derivatives” (TAKEDA PHARMACEUTICAL COMPANY LIMITED, priority 2012, dated 2016)

What was measured:
human MetAP2 enzyme [1] = target: T1, human MetAP2 enzyme (Homo sapiens, UniProt P50579); experiment: MetAP2 enzyme assay, enzyme complexed with cobalt ions; conditions: MetAP2 Co pIC50, MetAP2 enzyme complexed with cobalt ions; Met-AMC substrate at Km
human MetAP2 enzyme [2] = target: T1, human MetAP2 enzyme; experiment: MetAP2 enzyme assay, enzyme complexed with manganese ions; conditions: MetAP2 Mn pIC50, MetAP2 enzyme complexed with manganese ions; Met-AMC substrate at Km

T1 sequence (P50579 whole entry): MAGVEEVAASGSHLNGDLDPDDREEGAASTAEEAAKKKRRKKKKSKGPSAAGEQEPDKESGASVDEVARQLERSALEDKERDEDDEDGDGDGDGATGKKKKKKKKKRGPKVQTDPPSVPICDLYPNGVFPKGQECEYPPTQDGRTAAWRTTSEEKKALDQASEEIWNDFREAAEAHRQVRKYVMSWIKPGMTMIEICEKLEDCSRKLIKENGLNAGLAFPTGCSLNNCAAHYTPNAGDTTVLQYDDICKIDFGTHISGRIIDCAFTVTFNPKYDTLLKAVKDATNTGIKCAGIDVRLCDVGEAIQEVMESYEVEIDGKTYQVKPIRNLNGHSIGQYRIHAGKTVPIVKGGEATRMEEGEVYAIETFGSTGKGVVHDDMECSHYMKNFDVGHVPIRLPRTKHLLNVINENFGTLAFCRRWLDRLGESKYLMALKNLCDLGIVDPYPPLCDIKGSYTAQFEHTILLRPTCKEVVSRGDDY

Structure (SMILES) | IC50 (human MetAP2 enzyme [1]) [nM] | IC50 (human MetAP2 enzyme [2]) [nM]
CC(=O)Nc1cc(C)c(-c2cc(C(F)(F)F)cc3[nH]ncc23)cn1 [Example 179, N-(4-methyl-5-(6-(trifluoromethyl)-1H-indazol-4-yl)pyridin-2-yl)acetamide] | 25.1 | 10
Cn1cc(C(=O)NCC(O)CO)cc(-c2cc(C(F)(F)F)cc3[nH]ncc23)c1=O (stereo not shown) [Example 356, N-(2,3-dihydroxypropyl)-1-methyl-6-oxo-5-(6-(trifluoromethyl)-1H-indazol-4-yl)-1,6-dihydropyridine-3-carboxamide] | 316 | 6.31
Cc1nn(CC(=O)N2CCOCC2)cc1-c1cc(C(F)(F)F)cc2[nH]ncc12 [Example 277, 2-(3-methyl-4-(6-(trifluoromethyl)-1H-indazol-4-yl)-1H-pyrazol-1-yl)-1-morpholinoethanone] | 63.1 | 5.01
Cn1ccc2c(-c3cc(C(F)(F)F)cc4[nH]ncc34)cccc21 [Example 77, 4-(1-methyl-1H-indol-4-yl)-6-(trifluoromethyl)-1H-indazole] | 79.4 | 6.31
Cn1ncc(-c2cc(C(F)(F)F)cc3[nH]ncc23)c1CO [Example 250, (1-methyl-4-(6-(trifluoromethyl)-1H-indazol-4-yl)-1H-pyrazol-5-yl)methanol] | 79.4 | 6.31
O=C(c1cc(-c2cc(C(F)(F)F)cc3[nH]ncc23)ccn1)N1CC(O)C1 [Example 385, (3-hydroxyazetidin-1-yl)(4-(6-(trifluoromethyl)-1H-indazol-4-yl)pyridin-2-yl)methanone] | 79.4 | 5.01
NS(=O)(=O)c1ccc(-c2cc(C(F)(F)F)cc3[nH]ncc23)cc1F [Example 344, 2-fluoro-4-(6-(trifluoromethyl)-1H-indazol-4-yl)benzenesulfonamide] | 100 | 6.31
CCOCn1ccnc1-c1cc(C(F)(F)F)cc2[nH]ncc12 [Example 145, 4-(1-(ethoxymethyl)-1H-imidazol-2-yl)-6-(trifluoromethyl)-1H-indazole] | 3980 | 631
Cc1ccc(C(=O)N2CCC(CO)C2)cc1-c1cc(C(F)(F)F)cc2[nH]ncc12 (stereo not shown) [Example 371, (3-(hydroxymethyl)pyrrolidin-1-yl)(4-methyl-3-(6-(trifluoromethyl)-1H-indazol-4-yl)phenyl)methanone] | 50.1 | 15.8
COc1nc(Cl)ccc1-c1cc(C(F)(F)F)cc2[nH]ncc12 [Example 392, 4-(6-chloro-2-methoxypyridin-3-yl)-6-(trifluoromethyl)-1H-indazole] | 200 | 12.6
Cc1c(-c2cc(C(F)(F)F)cc3[nH]ncc23)ccc(=O)n1CC#N [Example 405, 2-(6-methyl-2-oxo-5-(6-(trifluoromethyl)-1H-indazol-4-yl)pyridin-1(2H)-yl)acetonitrile] | 79.4 | 10
C[C@@H](O)CNC(=O)c1c[nH]c(=O)c(-c2cc(C(F)(F)F)cc3[nH]ncc23)c1 [Example 336, (R)—N-(2-hydroxypropyl)-6-oxo-5-(6-(trifluoromethyl)-1H-indazol-4-yl)-1,6-dihydropyridine-3-carboxamide] | 631 | 10
O=C(O)Cn1cc(-c2cc(C(F)(F)F)cc3[nH]ncc23)ccc1=O [Example 374, 2-(2-oxo-5-(6-(trifluoromethyl)-1H-indazol-4-yl)pyridin-1(2H)-yl)acetic acid] | 1580 | 63.1
O=C(NCCO)c1ccc(-c2cc(C(F)(F)F)cc3[nH]ncc23)c(Cl)c1 [Example 331, 3-chloro-N-(2-hydroxyethyl)-4-(6-(trifluoromethyl)-1H-indazol-4-yl)benzamide] | 15.8 | 10
FC(F)(F)c1cc(-c2ccc3scnc3c2)c2cn[nH]c2c1 [Example 107, 5-(6-(trifluoromethyl)-1H-indazol-4-yl)benzo[d]thiazole] | 31.6 | 5.01
FC(F)(F)c1cc(-c2ccc(-c3ccn[nH]3)cc2)c2cn[nH]c2c1 [Example 62, 4-(4-(1H-pyrazol-5-yl)phenyl)-6-(trifluoromethyl)-1H-indazole] | 100 | 12.6
Cc1n[nH]cc1-c1cc(C(F)(F)F)cc2[nH]ncc12 [Example 22, 4-(3-methyl-1H-pyrazol-4-yl)-6-(trifluoromethyl)-1H-indazole] | 39.8 | 5.01
OCc1ccc(-c2cc(C(F)(F)F)cc3[nH]ncc23)cc1 [Example 11, (4-(6-(trifluoromethyl)-1H-indazol-4-yl)phenyl)methanol] | 31.6 | 3.16
CC(=O)Cn1nc(C)c(-c2cc(C(F)(F)F)cc3[nH]ncc23)c1C [Example 324, 1-(3,5-dimethyl-4-(6-(trifluoromethyl)-1H-indazol-4-yl)-1H-pyrazol-1-yl)propan-2-one] | 63.1 | 31.6
CN1CCN(C(=O)c2cc(-c3cc(C(F)(F)F)cc4[nH]ncc34)c[nH]c2=O)CC1 [Example 227, 3-(4-methylpiperazine-1-carbonyl)-5-(6-(trifluoromethyl)-1H-indazol-4-yl)pyridin-2(1H)-one] | 126 | 7.94
Fc1c[nH]c2ncc(-c3cc(C(F)(F)F)cc4[nH]ncc34)cc12 [Example 339, 4-(3-fluoro-1H-pyrrolo[2,3-b]pyridin-5-yl)-6-(trifluoromethyl)-1H-indazole] | 126 | 20
O=C1Cc2cc(-c3cc(C(F)(F)F)cc4[nH]ncc34)cnc2N1 [Example 238, 5-(6-(trifluoromethyl)-1H-indazol-4-yl)-1H-pyrrolo[2,3-b]pyridin-2(3H)-one] | 39.8 | 6.31
OCCNc1ncc(-c2cc(C(F)(F)F)cc3[nH]ncc23)cn1 [Example 209, 2-(5-(6-(trifluoromethyl)-1H-indazol-4-yl)pyrimidin-2-ylamino)ethanol] | 79.4 | 6.31
FC(F)(F)c1cc(-c2cc[nH]n2)c2cn[nH]c2c1 [Example 13, 4-(1H-pyrazol-3-yl)-6-(trifluoromethyl)-1H-indazole] | 398 | 10
FC(F)(F)c1cc(-c2cccc(N3CCOCC3)c2)c2cn[nH]c2c1 [Example 57, 4-(3-(6-(trifluoromethyl)-1H-indazol-4-yl)phenyl)morpholine] | 63.1 | 25.1
CC(C)Oc1ncccc1-c1cc(C(F)(F)F)cc2[nH]ncc12 [Example 143, 4-(2-isopropoxypyridin-3-yl)-6-(trifluoromethyl)-1H-indazole] | 63.1 | 15.8
COc1ncccc1-c1cc(C(F)(F)F)cc2[nH]ncc12 [Example 53, 4-(2-methoxypyridin-3-yl)-6-(trifluoromethyl)-1H-indazole] | 39.8 | 5.01
FC(F)(F)COc1ncccc1-c1cc(C(F)(F)F)cc2[nH]ncc12 [Example 100, 4-(2-(2,2,2-trifluoroethoxy)pyridin-3-yl)-6-(trifluoromethyl)-1H-indazole] | 200 | 15.8
COc1ccc(C(=O)N(C)C)cc1-c1cc(C(F)(F)F)cc2[nH]ncc12 [Example 272, 4-methoxy-N,N-dimethyl-3-(6-(trifluoromethyl)-1H-indazol-4-yl)benzamide] | 39.8 | 10
